Several values for one entry are separate records, joined by “and”; a condition that tells them apart may be missing. Equal entries are not always repeated. Where two headings read alike, the source gives them in different places. Marks after values point to notes of the source that are not given here. Residues, ends and D or L forms follow the SMILES beside them.
Legend:
[1] = biological target: T1, insulin receptor (IR); interaction of IR-Rluc with IRS1-YFP in HEK293 cells (Homo sapiens, UniProt P06213); experiment: BRET assay of IR activation (IR-Rluc/IRS1-YFP), single treatment, dose-response; type: cell-based; conditions: HEK293, 1 hour, 37°C, minimal data set for Figure 1, average
T1 construct: expressed in transfected cells; host or cells: HEK293 cells, transient co-transfection; plasmids provided by Dr. Tarik Issad (Cochin Institute, Paris)
T1 sequence (P06213 28-758 limits assumed): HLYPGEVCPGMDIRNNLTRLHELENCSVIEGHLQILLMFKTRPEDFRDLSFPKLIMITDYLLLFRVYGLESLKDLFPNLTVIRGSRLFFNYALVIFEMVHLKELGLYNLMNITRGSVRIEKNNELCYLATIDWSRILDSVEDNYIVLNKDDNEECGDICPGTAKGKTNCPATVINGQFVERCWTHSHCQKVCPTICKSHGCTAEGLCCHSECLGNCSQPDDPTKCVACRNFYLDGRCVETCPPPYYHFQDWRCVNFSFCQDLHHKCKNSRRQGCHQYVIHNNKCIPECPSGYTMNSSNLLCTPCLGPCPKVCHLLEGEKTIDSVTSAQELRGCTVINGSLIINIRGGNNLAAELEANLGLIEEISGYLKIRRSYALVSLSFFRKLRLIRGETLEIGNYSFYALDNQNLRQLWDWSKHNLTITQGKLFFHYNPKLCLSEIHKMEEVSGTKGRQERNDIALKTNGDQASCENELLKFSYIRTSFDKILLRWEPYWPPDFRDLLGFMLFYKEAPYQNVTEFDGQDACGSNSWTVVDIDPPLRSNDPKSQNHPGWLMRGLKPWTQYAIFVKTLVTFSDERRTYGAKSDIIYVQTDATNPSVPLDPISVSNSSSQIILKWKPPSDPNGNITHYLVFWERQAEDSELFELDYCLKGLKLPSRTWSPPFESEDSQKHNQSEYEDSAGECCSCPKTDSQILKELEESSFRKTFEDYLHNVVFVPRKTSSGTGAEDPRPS
T1 sequence (P06213 763-1382 limits assumed): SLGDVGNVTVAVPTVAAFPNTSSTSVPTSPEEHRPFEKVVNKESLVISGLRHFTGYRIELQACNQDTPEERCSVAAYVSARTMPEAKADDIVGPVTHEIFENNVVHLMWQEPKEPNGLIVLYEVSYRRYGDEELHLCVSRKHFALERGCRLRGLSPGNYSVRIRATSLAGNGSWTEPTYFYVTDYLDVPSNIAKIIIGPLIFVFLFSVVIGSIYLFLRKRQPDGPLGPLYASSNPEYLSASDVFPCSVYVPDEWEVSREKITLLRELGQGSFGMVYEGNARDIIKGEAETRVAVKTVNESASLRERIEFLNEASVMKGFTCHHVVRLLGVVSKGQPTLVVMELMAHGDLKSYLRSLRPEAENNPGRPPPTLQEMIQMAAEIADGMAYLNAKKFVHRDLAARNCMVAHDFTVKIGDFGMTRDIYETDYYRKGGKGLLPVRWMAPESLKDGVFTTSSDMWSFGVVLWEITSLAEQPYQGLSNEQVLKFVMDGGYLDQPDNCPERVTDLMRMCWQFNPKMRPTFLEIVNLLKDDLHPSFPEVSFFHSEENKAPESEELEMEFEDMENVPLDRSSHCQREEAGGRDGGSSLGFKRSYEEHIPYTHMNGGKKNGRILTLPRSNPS
Procedure: (§1) HepG2 and HEK293 cells were maintained at 37°C, 5% CO2 in complete RPMI and Dulbecco’s modified Eagle’s medium (DMEM), respectively, containing 0.3 mg/ml glutamine, 100 IU/ml penicillin, and 100 µg/ml streptomycin) supplemented with 10% fetal calf serum (Gibco, Carlsbad, CA, USA). The transient transfection in HEK293 cells was carried out in 75 cm flask containing 10^7 cells using Lipofectamine 2000 and 5 µg of IR-Rluc and 5 µg of IRS1-YFP (for BRET and phosphorylation experiments) as previously described. All assays were performed 48 hours post-transfection.
(§2) BRET technology was used for IR activation and its interaction with IRS1 as previously described. […] Following treatments, 10 μl of Coelenterazine h was added to a final concentration of 5 µ M and BRET measurements were carried out using the Tristar 2 multi-label plate reader (Berthold, Germany), allowing luminescence recording and signal integration at 480 nm and 540 nm.
(§3) Statistical analyses were performed statistical significance between the different treatments and conditions as indicated in the figures and tables and their captions. […] The significance is indicated in the figures by stars (****p-value < 0.0001, ***p-value < 0.001, ** p-value < 0.01, * p-value < 0.05), and the absence of stars means non-significant (p-value > 0.05). However, the two-way ANOVA was used for multiple comparisons to determine the statistical significance between the different peptides when compared to each other in the different assays as described in the tables.

[2] = tested on: insulin receptor (IR); insulin-induced IR-Rluc/IRS1-YFP BRET in HEK293 cells; experiment: BRET assay of IR activation, peptides combined with insulin; type: cell-based, human; conditions: for insulin-induced BRET, % of insulin's response in the vehicle, Average: Average of Experiments 1-7; for insulin-induced BRET, % of insulin's response in the vehicle, Average / insulin-induced BRET, % of insulin's response in the vehicle / % of maximal BRET (insulin-induced): 1 μM insulin + 0.1 mg/ml peptide; for insulin-induced BRET, % of insulin's response in the vehicle, Average / insulin-induced BRET, % of insulin's response in the vehicle: HEK293, minimal data set for Figure 2; for % of maximal BRET (insulin-induced) / profile on insulin-dependent BRET response in combined treatment (in words): HEK293 cells; for % of maximal BRET (insulin-induced): 1 hour, 37°C, % of insulin's response in the vehicle taken as 100%, mean ± SD of five to seven independent experiments in triplicate; for profile on insulin-dependent BRET response in combined treatment (in words): 0.1 mg/ml peptide + 1 μM insulin, compared to insulin alone (Vehicle)
Procedure: as §1, §2
as §3, with “For BRET, the data were normalized by taking as 100% of the maximal insulin-induced BRET signal in the vehicle and analyzed using GraphPad Prism software (San Diego, CA, USA). Statistical” for “Statistical”, “tables. In this case, the different letters indicate statistically significant effects (p-value < 0.05), while the same letters indicate no significant difference between the different treatments compared to each other.” for “tables.”

HepG2 cells = experiment: Glucose uptake assay (Glucose Uptake-Glo) in HepG2 cells; type: cell-based, human; conditions: 1 hour, 37°C; for glucose uptake, specific luminescence signal, Average: Average of Experiments 1-5, HepG2, 0.1 mg/ml peptide or 1 μM insulin, minimal data set for Figure 5; for % of glucose uptake: HepG2 cells, 0.1 mg/ml peptide or 1 μM insulin, % of insulin's response taken as 100%, mean ± SD of five independent experiments in triplicate
Procedure: Glucose uptake in HepG2 cells was carried out using Glucose Uptake-Glo Assay (Promega). For this, cells seeded in a 96-well white plate (50,000 cells/well) were first washed with PBS and starved in phenol red-, glucose-, and serum-free medium (Dulbecco’s modified Eagle’s medium containing 0.01 mM HEPES, 0.3 mg/ml glutamine, 100 IU/ml penicillin, and 100 µg/ml streptomycin). […] The treatment was removed, and the cells were washed once with PBS and then incubated with 50 μL/well of freshly prepared 2-deoxyglucose (500 μM) for 10 minutes at room temperature. The uptake process was stopped and neutralized, followed by the addition of 50 μl/well of 2-deoxyglucose-6-phosphate (2DG6P) detection reagent and incubation for 15-60 minutes at room temperature. The glucose-6-phosphate dehydrogenase (G6PDH) oxidizes 2DG6P to 6-phosphodeoxygluconate (6PDG) and reduces NADP + to NADPH. The reductase uses NADPH to convert the proluciferin to luciferin, which is then used by Ultra-Glo™ recombinant luciferase to produce luminescence. This luminescence, proportional to the amount of 2-deoxyglucose transported inside the cells upon treatment, was then measured using a 0.3–1 second integration on GloMax® Discover luminometer according to Glucose Uptake-Glo™ protocol.

[3] = tested on: AKT phosphorylation (pAKT-S473) in HepG2 cells; experiment: AKT phosphorylation by western blot in HepG2 cells; type: cell-based, human; conditions: 1 μM insulin + 0.1 mg/ml peptide, 10 minutes, 37°C
Procedure: Following treatment, cells were then lysed with RIPA lysis buffer and thereafter centrifuged at 12000 × g for 30 minutes. Thereafter, the extracted cell lysate proteins were quantified using the bicinchoninic acid (BCA) protein assay. To examine the phosphorylation status of IR and AKT, 30-40 μg of proteins were loaded on 10% SDS-PAGE gel followed by western blot using the following antibodies: the mouse monoclonal anti-phospho-IR (pIR-Tyr1334)(1:1000 dilution) and the mouse monoclonal anti-phospho-AKT (pAKT-S473)(1:2000 dilution) as previously described. The corresponding total proteins loaded were also analyzed in parallel using the specific antibodies against the native forms of the different proteins. Densitometry analysis of the different western blots was performed using Image Studio Version 5.2 software from LICOR (Lincoln, Nebraska, USA).

[4] = HEK293, read-out: BRET, % of the maximal response of insulin, Average, peptide 0.001 mg/ml
[5] = HEK293, read-out: BRET, % of the maximal response of insulin, Average, peptide 0.005 mg/ml
[6] = HEK293, read-out: BRET, % of the maximal response of insulin, Average, peptide 0.01 mg/ml
[7] = HEK293, read-out: BRET, % of the maximal response of insulin, Average, peptide 0.05 mg/ml
[8] = HEK293, read-out: BRET, % of the maximal response of insulin, Average, peptide 0.1 mg/ml
[9] = HEK293, read-out: BRET, % of the maximal response of insulin, Average, peptide 0.5 mg/ml
[10] = HEK293, read-out: BRET, % of the maximal response of insulin, Average, peptide 1 mg/ml

| Emax [1, 4] | Emax [1, 5] | Emax [1, 6] | Emax [1, 7] | Emax [1, 8] | Emax [1, 9] | Emax [1, 10] | Compound | insulin-induced BRET, % of insulin's response in the vehicle, Average [2] | insulin-induced BRET, % of insulin's response in the vehicle ([2]; Experiment 1) | insulin-induced BRET, % of insulin's response in the vehicle ([2]; Experiment 2) | insulin-induced BRET, % of insulin's response in the vehicle ([2]; Experiment 3) | insulin-induced BRET, % of insulin's response in the vehicle ([2]; Experiment 4) | insulin-induced BRET, % of insulin's response in the vehicle ([2]; Experiment 5) | insulin-induced BRET, % of insulin's response in the vehicle ([2]; Experiment 6) | insulin-induced BRET, % of insulin's response in the vehicle ([2]; Experiment 7) | % of maximal BRET (insulin-induced) [2] | profile on insulin-dependent BRET response in combined treatment (in words) [2] | glucose uptake, specific luminescence signal, Average (HepG2 cells) | % of glucose uptake (HepG2 cells) | insulin-induced AKT phosphorylation, combined treatment (in words) [3] |
| --- | --- | --- | --- | --- | --- | --- | --- | --- | --- | --- | --- | --- | --- | --- | --- | --- | --- | --- | --- | --- |
| 10.1% | 16.5% | 37.6% | 43% | 58.5% | 56.7% | 55.3% | CC(C)C[C@H](NC(=O)[C@H](Cc1ccccc1)NC(=O)[C@@H]1CCCN1C(=O)[C@H](CCCNC(=N)N)NC(=O)[C@@H](N)CC(C)C)C(=O)O [Peptide P1, LRPFL] (H-LRPFL-OH) | 103.6 | 73.6 | 47.0 | 66.9 | 125.9 | 98.2 | 190.8 | 122.6 | 104 ± 18^a % | non-efficient | 1669300 | 66 ± 18^b % |  |
| 6% | 11% | 19.1% | 48.8% | 47.7% | 46.3% | 41.4% | CC(C)C[C@H](N)C(=O)N1CCC[C@H]1C(=O)N[C@H](C(=O)N1CCC[C@H]1C(=O)N[C@@H](CCC(N)=O)C(=O)O)C(C)C [Peptide P3, LPVPQ] (H-LPVPQ-OH; N-terminus and C-terminus assumed) | 110.8 | 81.5 | 130.9 | 81.8 | 135.0 | 93.0 | 152.3 | 100.8 | 111 ± 11^a % | non-efficient | 1788200 | 71 ± 12^b % |  |
| 18.3% | 25.4% | 35% | 44.5% | 45.6% | 47.9% | 40.4% | CC(C)C[C@H](N)C(=O)N1CCC[C@H]1C(=O)N[C@H](C(=O)N1CCC[C@H]1C(=O)O)C(C)C [Peptide P6, LPVP] (H-LPVP-OH; N-terminus and C-terminus assumed) | 140.3 | 115.3 | 195.4 | 142.3 | 129.2 |  | 119.3 |  | 135 ± 13^d % | potentiating | 3425500 | 135 – 150% and 136 ± 16^d % | slightly potentiated |
|  |  |  |  |  |  |  | Human insulin [reference compound] |  |  |  |  |  |  |  |  | 100^a % |  | 2522500 | 100^a % |  |

| Compound | Emax [1, 4] | Emax [1, 5] | Emax [1, 6] | Emax [1, 7] | Emax [1, 8] | Emax [1, 9] | Emax [1, 10] | insulin-induced BRET, % of insulin's response in the vehicle, Average [2] | insulin-induced BRET, % of insulin's response in the vehicle ([2]; Experiment 1) | insulin-induced BRET, % of insulin's response in the vehicle ([2]; Experiment 2) | insulin-induced BRET, % of insulin's response in the vehicle ([2]; Experiment 3) | insulin-induced BRET, % of insulin's response in the vehicle ([2]; Experiment 4) | insulin-induced BRET, % of insulin's response in the vehicle ([2]; Experiment 5) | insulin-induced BRET, % of insulin's response in the vehicle ([2]; Experiment 6) | insulin-induced BRET, % of insulin's response in the vehicle ([2]; Experiment 7) | % of maximal BRET (insulin-induced) [2] | profile on insulin-dependent BRET response in combined treatment (in words) [2] | glucose uptake, specific luminescence signal, Average (HepG2 cells) | % of glucose uptake (HepG2 cells) | insulin-induced AKT phosphorylation, combined treatment (in words) [3] |
| --- | --- | --- | --- | --- | --- | --- | --- | --- | --- | --- | --- | --- | --- | --- | --- | --- | --- | --- | --- | --- |
| CC[C@H](C)[C@H](NC(=O)[C@@H]1CCCN1C(=O)[C@@H](N)Cc1ccc(O)cc1)C(=O)O [Peptide P9, YPI] (H-Tyr-Pro-Ile-OH; N-terminus and C-terminus assumed) | 3.3% | 14.7% | 24.7% | 29.3% | 40.2% | 39.3% | 31.7% | 108.5 | 96.6 | 93.8 | 107.9 | 136.4 | 113.3 | 127.9 | 83.8 | 109 ± 7^a % | non-efficient | 2361900 |  |  |

Reference: PMC11952234, “Functional profiling of synthetic camel milk-derived peptides with implication in glucose transport and diabetes” (PLOS One, 2025)
